In patent US20250387360A1, “Methods and Compositions for Treatment of Addiction” (University of Connecticut, priority 2024, published 2025):

Experiments:
C57BL/6J mice = experiment: Open field activity test (anxiety-like behavior); format: in vivo, mouse; conditions: after 10 days supplementation, 10 min exploration, n=10 mice/group
Protocol: The open field activity test was conducted to assess the impact of sodium valerate supplementation on exploratory and anxiety-like behavior. This test is a widely used method for analyzing locomotor ability and anxiety-related emotional behaviors in C57BL/6J mice. The open field activity chamber, constructed from white Plexiglass and illuminated with daylight, had dimensions of 37.5 cm height×40 cm length×40 cm width. General locomotor activity was recorded for 10 min by an overhead camera and analyzed using an automated video tracking system (ANY-maze v.4.6, Stoelting, IL, U.S.A, RRID:SCR_014289). The primary variables of interest included the total distance traveled (cm), the number of entries in the center area (20 cm length×20 cm width), and the percentage of time spent in the center area of the open field.
The effects of sodium valerate and NaCl was examined on anxiety-like behavior (n=10 mice/group) after 10 days of supplementation by open-field activity test.

[1] = system: gene expression in the amygdala; experiment: Bulk RNA-seq of amygdala (DESeq2, IPA); format: in vivo, mouse
Protocol: Total RNA was isolated from amygdala samples using the Direct-zol RNA Microprep Kit (Zymoresearch, CA, U.S.A). Quantification of total RNA and assessment of its purity ratios were performed using the NanoDrop 2000 spectrophotometer (Thermo Fisher Scientific, MA, U.S.A, RRID:SCR_018042).
Total RNA libraries were prepared for transcriptome sequencing using the Zymo-Seq RiboFree Stranded Total RNA library preparation kit (Zymo Research, CA, U.S.A) following the manufacturer's instructions. Further, rRNAs were depleted as part of the sample preparation process. Libraries were validated for length and adapter dimer removal using the Agilent TapeStation 4200 D1000 High Sensitivity assay (Agilent Technologies, CA, U.S.A, RRID:SCR_019398). Subsequent quantification and normalization were carried out using the dsDNA High Sensitivity Assay for Qubit 3.0 (Life Technologies, CA, U.S.A, RRID:SCR_020311). Sample libraries were then prepared for Illumina sequencing following the manufacturer's protocol (Illumina, CA, U.S.A). All the individual samples were consolidated into a single sequencing pool, with proportions targeting 30M reads/sample, and sequenced on the Illumina NovaSeq 6000 platform (Illumina, CA, U.S.A, RRID:SCR_016387).
Raw reads were subjected to adaptor removal and quality control including filtering of low-quality reads. Filtered reads were mapped to the mouse reference genome using STAR (Spliced Transcripts Alignment to a Reference, RRID:SCR_004463). Gene expression level was estimated by transcripts per million of transcript sequences. Principal component analysis (PCA) was performed to visualize overall gene expression differences between compared groups in several major principal components. The analysis of differential gene expression (DEG) was performed using the DESeq2 (RRID:SCR_015687) package for RNA-Seq data. […] The Benjamini-Hochberg procedure, also referred to as the false discovery rate (FDR) method, was applied to correct p-values for multiple testing. We utilized Ingenuity Pathway Analysis (IPA, RRID:SCR_008653) to predict pathways associated with differentially expressed genes and employed Gene Set Enrichment Analysis (GSEA, RRID:SCR_003199) to visualize the outcomes in a heatmap. Right tailed Fisher's exact test was performed in the IPA for identifying significant canonical pathways.
To gain a molecular understanding of the effects of sodium valerate supplementation on brain function, bulk RNA sequencing (RNA-seq) analysis was performed on amygdala tissue of mice that underwent the DID paradigm after sodium valerate or NaCl (n=7 mice/group) supplementation. […] DESeq2 identified a total of 301 DEG at the adjusted p value <0.25, 126 genes at the adjusted p value <0.10, and 75 genes at the adjusted p value <0.05. […] Among these genes, the top five protein coding genes with the highest expression in sodium valerate-supplemented mice are Kcna10 (potassium voltage-gated channel, shaker-related subfamily, member 10), Pln (phospholamban), H60C (histocompatibility antigen 60c), Idi1 (isopentenyl-diphosphate delta isomerase, pseudogene 3) and Snord34 (small nucleolar RNA, C/D box 34). […] PTGS2 is a prostanoids producer that responds to inflammation. Its downregulation in the sodium valerate supplemented group (log2Fold change: −0.65; adjusted p=0.0002) indicates an anti-inflammatory effect of valerate. […] As SCFAs may function in the brain through G protein-coupled receptors (GPCRs), gene expression levels of 85 GPRs were examined in the RNAseq data. […] IPA was performed to identify changes to the molecular signaling pathways and to comparatively assess the sodium valerate effects in the amygdala. […]

CCCCC(=O)[O-].[Na+] [sodium valerate]
distance travelled (C57BL/6J mice): did not lead to a significant change | number of entries in center (mean±SD) (C57BL/6J mice; p=0.01 vs NaCl): 57.50±5.48 | percentage of time spent in center area (mean±SD) (C57BL/6J mice; p=0.03 vs NaCl): 15.29±4.82 | MAPKs at the RNA level [1]: downregulated | six mitochondrial genes encoding subunits of NADH dehydrogenase (Complex I) [1]: consistently upregulated | downregulated genes among the 75 significant DEG ([1]; adjusted p <0.05): 28 | upregulated genes among the 75 significant DEG ([1]; adjusted p <0.05): 47 | PTGS2 expression, log2Fold change ([1]; adjusted p=0.0002): −0.65 | GPR158 expression, log2Fold change ([1]; unadjusted p<0.01): −0.26 | Gpr56 expression, log2Fold change ([1]; unadjusted p<0.01): 0.28
